# Legend:
# mTOR = mTOR (Homo sapiens (Human), UniProt P42345); experiment: mTOR kinase activity assay (phosphorylation status of mTOR substrate 4E-BP1; TR-FRET); type: biochemical; settings: GFP-4E-BP1 substrate, 8 μM ATP
# PI3Kalpha = PI3Kalpha (Homo sapiens (Human), UniProt P42336); experiment: Inhibition of PI3Kalpha-induced PIP-2 phosphorylation (filter-binding assay); type: biochemical; settings: 33P-ATP
# Experimental: Inhibition of PI3Kalpha-Induced PIP-2 Phosphorylation
# Method Type: Filter-Binding-Assay
# Aliquoted in desired amounts and stored at −80° C. Final assay concentration 25 ng/well.
# BT474 = BT474 cell assay (EC50); type: cell-based; settings: Homo sapiens, BT-474; BT474 cells
# [1] = test system: U87MG human glioblastoma cell line; experiment: CyQuant assay in U87MG cells; type: cell-based; settings: U-87 MG, 72 h, 3 days incubation
# Experimental: CyQuant Assay in U87MG Cells
# 3. […] Evaluation • Calculate EC50 using GraphPad Prism (Fifty)
# Chain of PI3Kalpha (P42336 whole entry, species assumed): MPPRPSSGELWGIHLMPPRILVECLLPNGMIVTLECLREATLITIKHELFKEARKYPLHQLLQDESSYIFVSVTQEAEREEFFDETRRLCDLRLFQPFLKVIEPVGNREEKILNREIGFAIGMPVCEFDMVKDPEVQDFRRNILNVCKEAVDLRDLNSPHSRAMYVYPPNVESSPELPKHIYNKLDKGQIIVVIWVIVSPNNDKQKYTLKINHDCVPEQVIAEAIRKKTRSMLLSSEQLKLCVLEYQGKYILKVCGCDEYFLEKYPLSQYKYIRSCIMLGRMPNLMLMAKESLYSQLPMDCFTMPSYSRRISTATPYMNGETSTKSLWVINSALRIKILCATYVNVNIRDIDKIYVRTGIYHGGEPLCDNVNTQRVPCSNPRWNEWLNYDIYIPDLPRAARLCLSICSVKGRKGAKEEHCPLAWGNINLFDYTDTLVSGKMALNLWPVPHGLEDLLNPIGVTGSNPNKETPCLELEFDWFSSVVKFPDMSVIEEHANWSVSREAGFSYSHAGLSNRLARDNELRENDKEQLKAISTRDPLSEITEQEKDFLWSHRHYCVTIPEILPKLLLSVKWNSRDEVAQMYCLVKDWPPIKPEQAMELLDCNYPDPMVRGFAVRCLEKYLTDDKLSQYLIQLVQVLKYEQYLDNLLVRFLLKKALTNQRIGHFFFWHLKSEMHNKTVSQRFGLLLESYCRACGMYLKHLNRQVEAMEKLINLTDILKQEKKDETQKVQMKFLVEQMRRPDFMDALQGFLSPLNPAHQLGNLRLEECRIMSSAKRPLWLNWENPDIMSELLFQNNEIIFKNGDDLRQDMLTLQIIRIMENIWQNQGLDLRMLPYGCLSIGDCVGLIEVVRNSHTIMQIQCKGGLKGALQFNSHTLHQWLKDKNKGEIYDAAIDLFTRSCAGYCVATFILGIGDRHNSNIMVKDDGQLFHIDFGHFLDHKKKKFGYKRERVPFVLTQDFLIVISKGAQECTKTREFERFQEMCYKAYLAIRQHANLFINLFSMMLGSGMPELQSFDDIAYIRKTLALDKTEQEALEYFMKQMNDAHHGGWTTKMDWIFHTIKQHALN
# Chain of PI3Kalpha (P27986 whole entry partner, species assumed): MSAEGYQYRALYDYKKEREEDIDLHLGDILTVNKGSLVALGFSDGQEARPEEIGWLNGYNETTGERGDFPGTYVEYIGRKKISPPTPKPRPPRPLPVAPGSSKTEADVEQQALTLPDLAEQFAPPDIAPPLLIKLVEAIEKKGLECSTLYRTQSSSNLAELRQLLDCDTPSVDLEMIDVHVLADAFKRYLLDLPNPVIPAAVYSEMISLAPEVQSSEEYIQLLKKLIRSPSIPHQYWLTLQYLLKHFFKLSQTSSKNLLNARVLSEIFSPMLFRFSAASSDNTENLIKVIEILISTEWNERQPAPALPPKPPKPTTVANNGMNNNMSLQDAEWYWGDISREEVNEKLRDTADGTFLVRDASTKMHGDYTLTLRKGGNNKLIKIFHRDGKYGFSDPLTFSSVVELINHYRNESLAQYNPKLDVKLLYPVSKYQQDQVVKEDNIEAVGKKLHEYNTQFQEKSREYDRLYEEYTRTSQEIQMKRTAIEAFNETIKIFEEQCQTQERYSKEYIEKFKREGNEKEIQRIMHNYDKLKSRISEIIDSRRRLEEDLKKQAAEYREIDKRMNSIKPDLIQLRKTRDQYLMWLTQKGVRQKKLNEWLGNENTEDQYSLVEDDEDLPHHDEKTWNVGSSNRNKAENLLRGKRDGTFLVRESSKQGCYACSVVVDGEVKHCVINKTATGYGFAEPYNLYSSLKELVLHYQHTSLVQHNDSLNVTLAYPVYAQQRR
# Chain of mTOR (P42345 1360-2549): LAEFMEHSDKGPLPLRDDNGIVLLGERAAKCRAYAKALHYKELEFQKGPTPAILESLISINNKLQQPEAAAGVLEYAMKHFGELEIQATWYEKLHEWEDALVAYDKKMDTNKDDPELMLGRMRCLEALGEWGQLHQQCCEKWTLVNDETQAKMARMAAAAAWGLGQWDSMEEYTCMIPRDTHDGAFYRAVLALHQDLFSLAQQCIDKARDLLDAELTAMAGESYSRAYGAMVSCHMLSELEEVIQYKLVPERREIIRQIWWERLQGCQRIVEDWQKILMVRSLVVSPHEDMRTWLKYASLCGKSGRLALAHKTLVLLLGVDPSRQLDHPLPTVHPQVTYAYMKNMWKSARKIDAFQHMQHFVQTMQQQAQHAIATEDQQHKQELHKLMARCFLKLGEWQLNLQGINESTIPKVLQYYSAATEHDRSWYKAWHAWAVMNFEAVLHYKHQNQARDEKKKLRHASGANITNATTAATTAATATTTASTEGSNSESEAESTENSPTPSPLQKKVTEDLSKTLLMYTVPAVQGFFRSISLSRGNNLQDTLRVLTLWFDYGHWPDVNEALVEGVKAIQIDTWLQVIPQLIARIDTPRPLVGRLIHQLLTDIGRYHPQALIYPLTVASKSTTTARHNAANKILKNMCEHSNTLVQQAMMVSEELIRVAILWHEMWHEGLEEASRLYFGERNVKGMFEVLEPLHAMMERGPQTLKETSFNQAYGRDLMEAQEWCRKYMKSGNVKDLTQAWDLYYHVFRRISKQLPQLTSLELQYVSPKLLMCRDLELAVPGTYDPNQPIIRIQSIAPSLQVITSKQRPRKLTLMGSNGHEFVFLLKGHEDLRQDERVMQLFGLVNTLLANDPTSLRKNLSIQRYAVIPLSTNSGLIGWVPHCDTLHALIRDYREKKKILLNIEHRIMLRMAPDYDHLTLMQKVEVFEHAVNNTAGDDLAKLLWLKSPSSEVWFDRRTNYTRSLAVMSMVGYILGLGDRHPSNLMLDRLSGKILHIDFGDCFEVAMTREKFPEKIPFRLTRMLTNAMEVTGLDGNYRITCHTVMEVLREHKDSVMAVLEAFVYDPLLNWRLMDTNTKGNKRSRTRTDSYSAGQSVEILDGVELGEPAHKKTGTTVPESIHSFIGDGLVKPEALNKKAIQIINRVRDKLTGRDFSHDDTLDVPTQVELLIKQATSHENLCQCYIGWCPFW
Structure (SMILES),IC50 (mTOR),IC50 PI3Ka (PI3Kalpha),EC50 (BT474),EC50 [1]
CCc1ncnc(N2CCN(c3ncccn3)CC2)c1C#Cc1ccc(N)nc1 [Example H-25],14 nM,48 nM,15 nM,
CCc1ncnc(N2CCN(CC(C)O)CC2)c1C#Cc1ccc(N)nc1 (stereo not drawn) [Example H-20],51 nM,152 nM,138 nM,
CCc1ncnc(N2CCN(c3ccncc3)CC2)c1C#Cc1ccc(N)nc1 [Example H-22],49 nM,229 nM,194 nM,
CCc1ncnc(N2CCN(CCNS(C)(=O)=O)CC2)c1C#Cc1ccc(N)nc1 [Example H-14],18 nM,60 nM,63 nM,
CCc1ncnc(N2CCN(c3ccccc3)CC2)c1C#Cc1ccc(N)nc1 [Example H-24],89 nM,129 nM,78 nM,
CCc1ncnc(N2CCN(c3ccccn3)CC2)c1C#Cc1ccc(N)nc1 [Example H-21],33 nM,42 nM,68 nM,
CCc1ncnc(N2CCC3(CC2)COC3)c1C#Cc1ccc(N)nc1 [Example H-7],138 nM,97 nM,944 nM,
CCc1ncnc(N2CCN(C)C(=O)C2)c1C#Cc1ccc(N)nc1 [Example H-13],37 nM,72 nM,76 nM,
CCc1ncnc(N2CCN(C(C)C)CC2)c1C#Cc1ccc(N)nc1 [Example H-6],15 nM,55 nM,72 nM,
CCc1ncnc(N2CCCCC2)c1C#Cc1ccc(NC)nc1 [Example H-1],55 nM,214 nM,,745 nM
CCc1ncnc(N2CCc3ncncc3C2)c1C#Cc1ccc(N)nc1 [Example H-11],27 nM,50 nM,93 nM,

# — patent US8618111B2, “5-alkynyl-pyrimidines” (Boehringer Ingelheim International GmbH, priority 2010, dated 2013)
